We go through 15 molecules from patent US20170210738A1, “GLUCOSE TRANSPORT INHIBITORS” (Bayer Pharma Aktiengesellschaft, priority 2014, published 2017).

For one experiment, the target named is T1, GLUT2 (Homo sapiens, UniProt P11168).
T1 construct: host or cells: DLD1 or CHO-K1
T1 sequence (P11168 1-524): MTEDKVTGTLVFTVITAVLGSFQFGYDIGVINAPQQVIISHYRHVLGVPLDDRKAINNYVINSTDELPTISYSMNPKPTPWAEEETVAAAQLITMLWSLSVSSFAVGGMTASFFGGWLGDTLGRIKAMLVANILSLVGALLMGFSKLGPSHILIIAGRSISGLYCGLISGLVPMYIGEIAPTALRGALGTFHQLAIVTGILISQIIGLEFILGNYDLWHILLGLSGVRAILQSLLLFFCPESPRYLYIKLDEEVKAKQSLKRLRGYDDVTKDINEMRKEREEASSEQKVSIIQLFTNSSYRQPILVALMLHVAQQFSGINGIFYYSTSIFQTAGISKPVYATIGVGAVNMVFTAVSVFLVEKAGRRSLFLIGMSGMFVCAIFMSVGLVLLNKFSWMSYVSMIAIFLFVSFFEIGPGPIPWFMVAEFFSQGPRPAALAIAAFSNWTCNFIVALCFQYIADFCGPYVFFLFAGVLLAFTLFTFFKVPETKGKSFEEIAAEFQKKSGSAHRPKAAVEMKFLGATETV
Put plainly: Indirect measurement of GLUT activity by quantification of intracellular ATP levels: fructose induced ATP increase (GLUT2 inhibition). Type of experiment: cell-based. Particulars: 30 mM fructose, 1 uM Rotenone, 15 min; CellTiter-Glo ATP levels; DLD1 or CHO-K1 cells; read-out: IC50 regarding fructose induced ATP increase (GLUT2 inhibition). An excerpt:
(§1) Indirect Measurement of GLUT Activity by Quantification of Intracellular ATP Levels
(§2) It is well known that a combination of small-molecule inhibitors of mitochondrial electron transport chain and glucose catabolism synergistically suppress ATP production and impair cellular viability (Ulanovskaya et al., 2008, 2011; Liu, et al. 2001). We therefore used DLD1 or CHO-K1 cells in combination with an oxidative phosphorylation inhibitor to identify GLUT inhibitors. Cell lines were maintained in DMEM medium supplemented with 10% FCS and 1% Penicillin-Streptomycin solution and 2% Glutamax. The cells were treated with trypsin and seeded into 384 plates at a density of 4000 cells/well. The cells were then cultured overnight in glucose free media containing 1% FCS to reduce intracellular ATP levels. After 24 h the cells were incubated at 37° C. containing the appropriate glucose or in case of GLUT2 fructose concentration (1 mM and 30 mM respectively) with or without compounds and 1 uM Rotenone for 15 min. The CellTiter-Glo® Luminescent Cell Viability Assay from Promega was then used to measure ATP levels. Compounds able to reduce the ATP levels within 15 min of glucose application were considered to be glucose uptake inhibitors.
By IC50 is commonly meant the concentration that gives 50% inhibition. Regarding `Cc1ccc2nc(C)cc(C(=O)Nc3cnn(Cc4ccc(F)cc4)c3C)c2c1` [Example 1, N-[1-(4-fluorobenzyl)-5-methyl-1H-pyrazol-4-yl]-2,6-dimethylquinoline-4-carboxamide], the IC50 is 5990 nM.

In the case of `COc1cc(C(=O)Nc2cnn(Cc3ccc(C#N)cc3)c2C)c2ccccc2n1` [Example 10, N-[1-(4-cyanobenzyl)-5-methyl-1H-pyrazol-4-yl]-2-methoxyquinoline-4-carboxamide], the IC50 was found to be 1650 nM.

The next experiment has as its target T2, GLUT1 (Homo sapiens, UniProt P11166).
T2 construct: endogenous in cells; host or cells: DLD1 or CHO-K1
T2 sequence (P11166 1-492): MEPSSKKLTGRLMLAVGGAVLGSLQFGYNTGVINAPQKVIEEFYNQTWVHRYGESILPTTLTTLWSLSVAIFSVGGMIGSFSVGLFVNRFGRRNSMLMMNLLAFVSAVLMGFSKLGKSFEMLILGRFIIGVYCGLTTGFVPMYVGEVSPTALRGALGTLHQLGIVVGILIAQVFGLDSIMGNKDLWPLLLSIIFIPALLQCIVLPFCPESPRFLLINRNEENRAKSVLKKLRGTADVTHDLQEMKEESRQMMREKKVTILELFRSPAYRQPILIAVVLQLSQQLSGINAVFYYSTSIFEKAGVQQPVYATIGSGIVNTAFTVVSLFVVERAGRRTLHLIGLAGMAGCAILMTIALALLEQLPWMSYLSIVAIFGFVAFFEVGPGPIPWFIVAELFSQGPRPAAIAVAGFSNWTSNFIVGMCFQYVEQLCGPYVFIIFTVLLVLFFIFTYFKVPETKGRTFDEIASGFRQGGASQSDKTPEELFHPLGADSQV
Put plainly: Indirect measurement of GLUT activity by quantification of intracellular ATP levels: glucose induced ATP increase (GLUT1 inhibition). The class given is cell-based. Particulars: DLD1 cells; 1 mM glucose, 1 uM Rotenone, 15 min; CellTiter-Glo ATP levels; IC50 values standardized to cytochalasin B IC50 values; read-out: IC50 regarding glucose induced ATP increase (GLUT1 inhibition).
Source text: as §1, §2
(ATP-based viability assays read luminescence as a measure of living cells.)
Regarding `Cc1ccc2nc(C)cc(C(=O)Nc3cnn(Cc4ccc(F)cc4)c3C)c2c1` [Example 1, N-[1-(4-fluorobenzyl)-5-methyl-1H-pyrazol-4-yl]-2,6-dimethylquinoline-4-carboxamide], the IC50 came to 9.4 nM.

Take `COc1cc(C(=O)Nc2cnn(Cc3ccc(F)cc3)c2C)c2ccccc2n1` [Example 3, N-[1-(4-fluorobenzyl)-5-methyl-1H-pyrazol-4-yl]-2-methoxyquinoline-4-carboxamide]: the 50% inhibitory concentration (IC50) was determined as 152 nM.

Turning to `COc1ccc(Cn2ncc(NC(=O)c3cc(C(N)=O)nc4ccccc34)c2C)cc1` [Example 13, N^4-[1-(4-methoxybenzyl)-5-methyl-1H-pyrazol-4-yl]quinoline-2,4-dicarboxamide], the IC50 turned out to be 2.2 nM.

`Cc1c(NC(=O)c2cc(C(N)=O)nc3ccccc23)cnn1Cc1cccc(F)c1` [Example 27, N^4-[1-(3-fluorobenzyl)-5-methyl-1H-pyrazol-4-yl]quinoline-2,4-dicarboxamide]: the IC50 was determined as 52 nM.

`N#Cc1ccc(Cn2ncc(NC(=O)c3cc(C(F)(F)F)nc4ccc(Br)cc34)c2C(N)=O)cc1` [Example 22, 6-bromo-N-[5-carbamoyl-1-(4-cyanobenzyl)-1H-pyrazol-4-yl]-2-(trifluoromethyl)quinoline-4-carboxamide]: the IC50 was 387 nM.

Regarding `Cc1c(NC(=O)c2cc(C(N)=O)nc3ccccc23)cnn1Cc1ccccc1C#N` [Example 15, N^4-[1-(2-cyanobenzyl)-5-methyl-1H-pyrazol-4-yl]quinoline-2,4-dicarboxamide], the IC50 came out at 755 nM.

In the case of `COc1cc(C(=O)Nc2cnn(Cc3ccc(C#N)cc3)c2C)c2ccccc2n1` [Example 10, N-[1-(4-cyanobenzyl)-5-methyl-1H-pyrazol-4-yl]-2-methoxyquinoline-4-carboxamide], the IC50 came out at 87 nM.

Take `CCS(=O)(=O)N1CCC(Cn2ncc(NC(=O)c3cc(C(F)(F)F)nc4ccc(Br)cc34)c2C)CC1` [Example 38, 6-bromo-N-(1-{[1-(ethylsulfonyl)piperidin-4-yl]methyl}-5-methyl-1H-pyrazol-4-yl)-2-(trifluoromethyl)quinoline-4-carboxamide]: the IC50 was 615 nM.

As to `NC(=O)c1c(NC(=O)c2cc(C(F)(F)F)nc3ccc(Br)cc23)cnn1Cc1ccc(F)cc1` [Example 18, 6-bromo-N-[5-carbamoyl-1-(4-fluorobenzyl)-1H-pyrazol-4-yl]-2-(trifluoromethyl)quinoline-4-carboxamide], the IC50 stood at 1250 nM.

On to `Cc1nc(Cn2ncc(NC(=O)c3cc(C(N)=O)nc4ccccc34)c2C)cs1` [Example 39, N^4-{5-methyl-1-[(2-methyl-1,3-thiazol-4-yl)methyl]-1H-pyrazol-4-yl}quinoline-2,4-dicarboxamide], for which the IC50 is 517 nM.

`CCc1noc(Cn2ncc(NC(=O)c3cc(C(N)=O)nc4ccccc34)c2C)n1` [Example 37, N^4-{1-[(3-ethyl-1,2,4-oxadiazol-5-yl)methyl]-5-methyl-1H-pyrazol-4-yl}quinoline-2,4-dicarboxamide]: the 50% inhibitory concentration (IC50) was 1920 nM.

Regarding `CNC(=O)c1c(NC(=O)c2cc(C(F)(F)F)nc3ccc(Br)cc23)cnn1Cc1ccc(C#N)cc1` [Example 21, 6-bromo-N-[1-(4-cyanobenzyl)-5-(methylcarbamoyl)-1H-pyrazol-4-yl]-2-(trifluoromethyl)quinoline-4-carboxamide], the IC50 was determined as 3960 nM.

Regarding `Cc1cc(Cn2ncc(NC(=O)c3cc(C(N)=O)nc4ccccc34)c2C)no1` [Example 45, N^4-{5-methyl-1-[(5-methyl-1,2-oxazol-3-yl)methyl]-1H-pyrazol-4-yl}quinoline-2,4-dicarboxamide], the 50% inhibitory concentration (IC50) was 222 nM.

In the case of `COc1ccc(Cn2ncc(NC(=O)c3cc(OC)nc4ccccc34)c2C)cc1` [Example 11, 2-methoxy-N-[1-(4-methoxybenzyl)-5-methyl-1H-pyrazol-4-yl]quinoline-4-carboxamide], the IC50 stood at 19 nM.

In the case of `CCc1c(NC(=O)c2cc(C(N)=O)nc3cc(F)c(Cl)cc23)cnn1Cc1ccc(C#N)cc1` [Example 32, 6-chloro-N^4-[1-(4-cyanobenzyl)-5-ethyl-1H-pyrazol-4-yl]-7-fluoroquinoline-2,4-dicarboxamide], the IC50 stood at 43 nM.
